Data published in patent US12059422B2 (MEI Pharma, Inc., priority 2011, dated 2024).

Target: T1, PI3Kδ (Homo sapiens, UniProt O00329)
T1 construct: endogenous in cells; host or cells: Raji (ATCC #CCL-86)
Test: ELISA assay for PI3Kδ: sandwich ELISA, phosphorylation of AKT (Thr308) in Raji cells
Type: cell-based
Conditions: for IC50: cellular, pAKT (Thr308), Raji cells, anti-Human IgM stimulation, read-out: IC50 p110δ; for α/δ ratio / β/δ ratio / γ/δ ratio: ratio of cellular IC50 values, Table 2
Summary of the method: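 Raji cells, serum-starved 2 hrs, treated with compound (10 concentrations) for 2 hrs at 37° C, then stimulated 30 min with anti-human IgM. Lysates analysed by sandwich ELISA for pAKT Thr308 and total AKT with luminescent read-out. IC50 from curve fitting.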

T1 sequence (O00329 whole entry): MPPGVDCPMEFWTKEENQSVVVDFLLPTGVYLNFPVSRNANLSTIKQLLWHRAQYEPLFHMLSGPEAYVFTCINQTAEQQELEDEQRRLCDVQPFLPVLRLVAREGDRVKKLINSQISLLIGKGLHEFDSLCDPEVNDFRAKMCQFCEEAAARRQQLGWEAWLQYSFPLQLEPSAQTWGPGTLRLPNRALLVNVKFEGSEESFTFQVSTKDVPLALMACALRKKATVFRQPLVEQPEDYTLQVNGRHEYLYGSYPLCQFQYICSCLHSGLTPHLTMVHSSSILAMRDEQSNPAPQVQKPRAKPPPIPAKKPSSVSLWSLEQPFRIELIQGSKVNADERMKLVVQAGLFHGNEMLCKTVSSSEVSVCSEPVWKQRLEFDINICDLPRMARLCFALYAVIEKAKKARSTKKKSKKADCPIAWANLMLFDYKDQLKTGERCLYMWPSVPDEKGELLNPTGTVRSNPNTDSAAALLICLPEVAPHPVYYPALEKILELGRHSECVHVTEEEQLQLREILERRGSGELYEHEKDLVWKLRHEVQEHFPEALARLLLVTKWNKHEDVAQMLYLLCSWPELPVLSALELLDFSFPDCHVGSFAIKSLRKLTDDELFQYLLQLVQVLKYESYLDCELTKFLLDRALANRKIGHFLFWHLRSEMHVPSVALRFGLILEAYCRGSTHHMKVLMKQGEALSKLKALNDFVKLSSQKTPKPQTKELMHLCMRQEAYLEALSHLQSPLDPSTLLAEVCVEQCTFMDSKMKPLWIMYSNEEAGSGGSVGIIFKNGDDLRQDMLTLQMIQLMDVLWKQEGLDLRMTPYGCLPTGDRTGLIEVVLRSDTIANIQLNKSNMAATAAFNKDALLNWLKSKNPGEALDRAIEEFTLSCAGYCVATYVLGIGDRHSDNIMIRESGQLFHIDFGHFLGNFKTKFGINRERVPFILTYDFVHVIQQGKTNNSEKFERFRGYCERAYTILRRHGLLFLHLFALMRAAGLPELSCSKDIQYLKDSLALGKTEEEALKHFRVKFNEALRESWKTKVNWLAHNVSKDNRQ
T1 sequence (P27986 whole entry partner): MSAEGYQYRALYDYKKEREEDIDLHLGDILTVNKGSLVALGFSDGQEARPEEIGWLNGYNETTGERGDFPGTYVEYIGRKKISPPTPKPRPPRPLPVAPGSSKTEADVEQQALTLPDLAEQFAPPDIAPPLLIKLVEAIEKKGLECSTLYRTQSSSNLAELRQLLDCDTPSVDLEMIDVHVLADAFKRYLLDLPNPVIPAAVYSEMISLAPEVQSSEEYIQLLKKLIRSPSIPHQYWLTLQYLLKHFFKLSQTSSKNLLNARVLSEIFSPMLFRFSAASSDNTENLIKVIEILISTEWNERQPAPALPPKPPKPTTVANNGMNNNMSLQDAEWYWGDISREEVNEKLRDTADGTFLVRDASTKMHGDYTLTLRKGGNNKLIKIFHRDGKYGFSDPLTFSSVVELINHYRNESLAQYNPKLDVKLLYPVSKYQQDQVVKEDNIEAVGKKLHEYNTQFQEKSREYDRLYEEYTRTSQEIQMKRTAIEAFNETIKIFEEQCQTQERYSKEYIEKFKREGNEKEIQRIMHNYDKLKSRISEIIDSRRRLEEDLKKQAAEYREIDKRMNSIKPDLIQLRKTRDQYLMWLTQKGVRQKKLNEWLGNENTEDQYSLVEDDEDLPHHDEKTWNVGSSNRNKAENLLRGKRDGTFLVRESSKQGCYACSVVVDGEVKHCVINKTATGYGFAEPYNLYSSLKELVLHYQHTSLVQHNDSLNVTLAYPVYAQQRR

Row | IC50 | α/δ ratio | β/δ ratio | γ/δ ratio | Compound
1 | ≤ 0.1 µM | A’ | C’ | A’ | CC(C)(Cc1ccccc1C1CCN(S(C)(=O)=O)CC1)Nc1nc(N2CCOCC2)nc(-n2c(C(F)F)nc3ccccc32)n1 [Compound A73, 4-(2-(difluoromethyl)-1H-benzo[d]imidazol-1-yl)-N-(2-methyl-1-(2-(1-(methylsulfonyl)piperidin-4-yl)phenyl)propan-2-yl)-6-morpholino-1,3,5-triazin-2-amine]
2 | ≤ 0.1 µM | A’ | C’ | A’ | CC(C)(Cc1ccccc1C1CCNC1)Nc1nc(N2CCOCC2)nc(-n2c(C(F)F)nc3ccccc32)n1 (stereo not shown) [Compound A74, 4-(2-(difluoromethyl)-1H-benzo[d]imidazol-1-yl)-N-(2-methyl-1-(2-(pyrrolidin-3-yl)phenyl)propan-2-yl)-6-morpholino-1,3,5-triazin-2-amine]
3 | ≤ 0.1 µM | A’ | B’ | A’ | CN1CCC(c2ccccc2CC(C)(C)Nc2nc(N3CCOCC3)nc(-n3c(C(F)F)nc4ccccc43)n2)C1 (stereo not shown) [Compound A75, 4-(2-(difluoromethyl)-1H-benzo[d]imidazol-1-yl)-N-(2-methyl-1-(2-(1-methylpyrrolidin-3-yl)phenyl)propan-2-yl)-6-morpholino-1,3,5-triazin-2-amine]
4 | ≤ 0.1 µM | A’ | A’ | A’ | CN(C)CCCc1ccccc1CC(C)(C)Nc1nc(N2CCOCC2)nc(-n2c(C(F)F)nc3ccccc32)n1 [Compound A76, 4-(2-(difluoromethyl)-1H-benzo[d]imidazol-1-yl)-N-(1-(2-(3-(dimethylamino)propyl)phenyl)-2-methylpropan-2-yl)-6-morpholino-1,3,5-triazin-2-amine]
